In data set [1] the test system is 3xTg-AD mice. Nature of the data set: Golgi staining of dendritic spines. The data set is classed as in vivo. To be noted: oral, 8 months. On the procedure: (§1) Female homozygous 3xTg-AD mice carrying transgenes for APP (Swedish KM670/671Nl), MAPT (tauP301L) and Psen1 (M146V) were procured from Jackson’s Laboratory (# 004807). The transgenic mice colonies were bred and maintained in the HKBU animal house at 23 ± 2 °C, 60 ± 15% relative humidity with regular access to food and water. Seven-month-old 3xTg-AD mice were randomly segregated into three treatment groups: Tg-Vehicle, 1 mg/kg, and 2.5 mg/kg PRO-Br. PRO-Br was administered orally for 8 months (n = 8). The bodyweight of mice from all the groups was recorded once every week.
FD Rapid Golgi Stain Kit was employed to determine the dendritic spine density in the 3xTg-AD mice brains and was performed according to procedure described previously ([Iyaswamy et al., 2022]). Briefly, mice were perfused using 4% PFA, and the brains were dissected carefully to avoid damage. Next, the brain samples were frozen by dipping in isopentane solution (on dry ice). The frozen brains were sectioned at 150 μm thickness using a Shandon Cryotome SME Cryostat (Ramsey, MN, United States). The tissue slices were carefully mounted onto glass slides and stained with the kit reagents in accordance with the manufacturer’s procedure. The dendritic images were acquired by Leica confocal microscope. […]

Data set [2] concerns SHSYP301L cells. Put plainly: Immunoblotting of tau, Ac-α-tubulin and chaperones in tau-overexpressing cells. The class given is cell-based. Here is the method:
SHSY5Y cells stably-expressing mutant tau (SHSYP301L) were cultured in DMEM/F12 + 15% FBS, 3 μg/ml Blasticidin S HCl, and 1X PSN. N2A mouse neuroblastoma and mouse hippocampal neuronal (HT22) cells were cultured in DMEM+10% FBS, and 1X PSN. Sterile complete medium containing PRO-Br was added to the cells, and they were then incubated for 24 h at an optimum temperature of 37°C in a sterile 5% CO2 incubator.
(§2) After PRO-Br treatment, cells were solubilised using cold RIPA lysis buffer (9803, Life Technologies), containing protease and phosphatase inhibitor tablets. Cells were sonicated and centrifuged at 14000 rpm for 15 min. Total protein concentration was determined by BCA protein assay, and the samples were separated on SDS-PAGE and transferred to PVDF membranes. The membranes were blocked, washed, and incubated with primary antibodies (Table 1), and incubated at 4°C, overnight. The membranes were further incubated with the required dilutions of secondary antibody for 1 h, at RT. The chemiluminescent signals were captured using x-ray film in a darkroom, with an appropriate chemiluminescent substrate kit (ThermoFisher Scientific, United States). Films were scanned, and the relative intensities of the signals were analyzed using ImageJ software.
(In general: In western blotting, separated proteins are transferred to a membrane and probed.)

The subject of data set [3] is 3xTg-AD mice. Nature of the data set: Brain immunoblotting (sarkosyl tau fractions, chaperones, LAMP2A) and IHC. The data set is classed as in vivo. On the procedure:
as §1
(§3) Brain tissues from experimental mice were carefully isolated, washed with 1X PBS, and fixed with 4% paraformaldehyde. Post-fixation for 48 h, brain tissues were transferred to 30% sucrose solution for cryopreservation. Tissue sections (30 μm) were obtained using a cryotome, maintained at a constant -30°C. Permeabilization was performed with 0.4% triton-X-100 for 10 min. For tau immunofluorescence, PHF1 primary antibody was added, and sections were kept overnight at four°C. The following day, an appropriate secondary antibody was added at RT for 1.5 h. DAPI was used as a nuclear stain for 5 min. For DAB staining, AT8 primary antibody was added to the sections overnight. The next day, an appropriate secondary antibody was added for 1.5 h. Staining was performed by employing a Vectastain-ELITE ABC-HRP kit according to the manufacturer’s procedure. The stained sections were carefully arranged on glass slides and mounted with an appropriate mounting medium under a coverslip. Images of cortical/hippocampal regions were taken with an Eclipse 80i fluorescence microscope (Nikon Instruments Inc.). The threshold was adjusted to remove the background staining. The captured images were quantified using ImageJ (NIH) software.
Brain tissues of 3xTg-AD and P301S mice were separated, sagittally, into equal halves. One-half was lysed with tissue lysis buffer augmented with phosphatase and protease inhibitor cocktail tablets, while the other half was used for immunohistochemical analysis. Brain tissues were homogenized on ice using an Ultra Turrax tissue homogenizer. Brain tissue homogenate was subjected to sarkosyl differential centrifugation with 1% sarkosyl to separate the non-pathogenic soluble and pathogenic insoluble tau fractions. Protein lysates were evaluated for changes in levels of phospho epitopes of tau (AT8, CP13, PHF-1, MC-1, and ALZ50), and for total htau (HT7) using Western blot.
as §2

For data set [4], the system named is P301S mice. Put plainly: Rotarod test. The data set is classed as in vivo. The settings on record: oral, 2.5 months, vs Tg-Vehicle. On the procedure: (§4) Female homozygous P301S mice bearing the transgene for MAPT (P301S), were generous gifts from Michael Goedert. P301S-tau mice (1.5-month-old, n = 8) were administered with PRO-Br daily for 2.5 months. The mice models employed in the study were maintained under 12 h light-dark cycles and were provided ad libitum access to chow and water.
Motor behavior was assessed by the rotarod test (Harvard apparatus, SeDaCom v2.0.000) and was performed according to the procedure described previously ([Song et al., 2020]). The study mice were brought into the experimental room 30 min before the test. The training was conducted with a constant speed of 4, 8, and 12 rpm on days 1, 2, and 3, respectively. Three trials were conducted each day and the performance was monitored. On the fourth day, an acceleration mode (4–40 rpm in 5 min) was introduced, and the time spent (s) by each mouse on the rod was recorded by the instrument connected to a computer.
(In general: In the rotarod test animals must keep their balance on a rotating rod.)

Data set [5] deals with P301S mice. Put plainly: Brain immunoblotting (sarkosyl tau fractions, chaperones, LAMP2A) and IHC. The data set is classed as in vivo. Here is the method:
as §4
as §3, with “The stained sections were carefully arranged on glass slides and mounted with an appropriate mounting medium under a coverslip.” left out, “The threshold was adjusted to remove the background staining.” left out
Brain tissues of 3xTg-AD and P301S mice were separated, sagittally, into equal halves. […] Protein lysates were evaluated for changes in levels of phospho epitopes of tau (AT8, CP13, PHF-1, MC-1, and ALZ50), and for total htau (HT7) using Western blot.
After PRO-Br treatment, cells were solubilised using cold RIPA lysis buffer (9803, Life Technologies), containing protease and phosphatase inhibitor tablets. […] Total protein concentration was determined by BCA protein assay, and the samples were separated on SDS-PAGE and transferred to PVDF membranes. […] Films were scanned, and the relative intensities of the signals were analyzed using ImageJ software.

Structures are written as SMILES.

For the molecule `CN1CCc2cc3c(cc2C(=O)Cc2c(Br)cc4c(c2C1)OCO4)OCO3` [PRO-Br, bromo-protopine], the “dendritic spine structures (thin, stubby and mushroom-like) in the hippocampus” value in data set [1] is recorded as “significantly enhanced the dendritic spine structures”. In data set [2] (24 h), the “PHF1 and TAU5 levels” value was “simultaneously reducing PHF1 and TAU5 levels”; the “expression of HSP70” value is “significantly and dose-dependently augmented the expression of HSP70”. In addition, the “acetylation of α-tubulin” value in data set [2] (compared to PRO) is “enhanced the acetylation of α-tubulin”. The “PHF1 degradation on co-treatment with CMA/lysosomal protease inhibitors E64D and pepstatin” value in data set [2] (compared to PRO-Br treatment alone) is listed as “significantly blocked the degradation of PHF1 levels”. For the same molecule, the tau/PHF1-reducing activity result in data set [2] (preliminary screening) is “good tau/PHF1-reducing activity”. In addition, the “PHF1 degradation on co-treatment with MG132, Wortmannin or Chloroquine” value in data set [2] (proteasome, autophagy or lysosome inhibitor co-treatment) is recorded as “did not block PRO-Br-mediated PHF1 degradation”. Moreover, the “AT8-positive cell count in the cortico-hippocampal regions” value in data set [3] (1.0 and 2.5 mg/kg, IHC) is listed as “significantly reduced AT8-positive cell count”. Moreover, in data set [3] (brain, immunoblotting), the “acetylation of HSP90 (K294)” value is “dose-dependently enhanced the acetylation of HSP90 (K294)”; the “expression of sarkosyl-insoluble phospho-tau variants” value is given as “specifically reduced the expression of sarkosyl-insoluble phospho-tau variants in a dose-dependent manner”; the “heat shock proteins HSP70 and HSC70” value is “dose-dependently increased the heat shock proteins HSP70 and HSC70”; the “protein expression of LAMP2A” value is recorded as “dose-dependently increased”. Further, in data set [4], the “latency of falling (rotarod)” value is listed as “latency of falling was significantly enhanced”. Also, the “AT8- and PHF1-positive cell counts” value in data set [5] (IHC) was “significantly reduced”. For the same molecule, in data set [5] (brain, immunoblotting), the “expression of sarkosyl-insoluble phospho-tau variants” value was “specifically reduced the expression of sarkosyl-insoluble phospho-tau variants in a dose-dependent manner” and the “protein expression of LAMP2A” value was “dose-dependently increased”.

For the origin of these results see paper PMC9643865, “Bromo-protopine, a novel protopine derivative, alleviates tau pathology by activating chaperone-mediated autophagy for Alzheimer’s disease therapy” (Frontiers in Molecular Biosciences, 2022).
